According to patent US7892350B2, “Sacrificial agents for fly ash concrete” (Boral Material Technologies Inc., priority 2003, dated 2011):
Like-named read-outs stand apart in the source and are kept apart here.

Assays:
[1] = Air entrainment in mortars (ASTM C185-88); conditions: for decrease of variability (RSD values): fly ash mortars, Air 30 combined with the SA versus Air 30 alone
Method: Air entrainment were measured in mortars containing portland cement only (control), or a combination of portland cement and fly ash in the ratio 70:30;
The mix compositions are given in the Table below and the measurements were performed according to standard protocols described in ASTM C185-88

[2] = Second sacrificial agent testing protocol: paste air measurements with DDBS (0.0125 wt %) and rating; conditions: for B1 + 0.0125% DDBS + 0.05% SA (air entrainment) / B1 + 0.0125% DDBS + 0.1% SA (air entrainment): B1 FA/cement paste; for PCA + 0.1% SA (level of air entrainment by the candidate sacrificial agent): Portland cement paste (PCA); for SA Rating (0-4): sacrificial agent overall rating index; as to Overall performance rating (second protocol rating): key: 0: Fail; 1: Poor; 2: Good; 3: Preferred; 4: Most preferred; as to SA Rating (0-4): key: 0: Fail; 1: Poor; 2: Good; 3: Preferred; 4: Most preferred
Summary of the method: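 Air entrainment was measured in cement pastes of fixed composition and fluidity. The candidate agent was tested alone at 0.1 wt % in a cement-only paste. It was also tested at 0.05 and 0.1 wt % in a fly ash (B1)-cement paste with DDBS, where air recovery was calculated against the same paste without agent.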

[3] = Hansch, C. et al. (1995), cited from earlier work
[4] = 30:70 fly ash B1 (LOI 5.01%):cement mortar, 0.002 wt % Air 30 alone or +0.05 wt % SA
[5] = 30:70 fly ash B1 (LOI 5.01%):cement mortar, 0.005 wt % Air 40 alone or +0.05 wt % SA
[6] = 30:70 fly ash C1 (LOI 0.70%):cement mortar, 0.002 wt % Air 30 alone or +0.05 wt % SA
[7] = 30:70 fly ash C1 (LOI 0.70%):cement mortar, 0.005 wt % Air 40 alone or +0.05 wt % SA
[8] = 30:70 fly ash C2 (LOI 3.04%):cement mortar, 0.002 wt % Air 30 alone or +0.05 wt % SA
[9] = 30:70 fly ash C2 (LOI 3.04%):cement mortar, 0.005 wt % Air 40 alone or +0.05 wt % SA
[10] = 30:70 fly ash C3 (LOI 2.54%):cement mortar, 0.002 wt % Air 30 alone or +0.05 wt % SA
[11] = 30:70 fly ash C3 (LOI 2.54%):cement mortar, 0.005 wt % Air 40 alone or +0.05 wt % SA
[12] = 30:70 fly ash D (LOI […]):cement mortar, 0.002 wt % Air 30 alone or +0.05 wt % SA
[13] = 30:70 fly ash D (LOI […]):cement mortar, 0.005 wt % Air 40 alone or +0.05 wt % SA
[14] = 30:70 fly ash H1 (LOI 8.45%):cement mortar, 0.002 wt % Air 30 alone or +0.05 wt % SA
[15] = 30:70 fly ash H1 (LOI 8.45%):cement mortar, 0.005 wt % Air 40 alone or +0.05 wt % SA
[16] = 30:70 fly ash M1 (LOI […]):cement mortar, 0.002 wt % Air 30 alone or +0.05 wt % SA
[17] = 30:70 fly ash M1 (LOI […]):cement mortar, 0.005 wt % Air 40 alone or +0.05 wt % SA
[18] = 30:70 fly ash M2 (LOI 8.78%):cement mortar, 0.002 wt % Air 30 alone or +0.05 wt % SA
[19] = 30:70 fly ash M2 (LOI 8.78%):cement mortar, 0.005 wt % Air 40 alone or +0.05 wt % SA
[20] = 30:70 fly ash M3 (LOI 3.15%):cement mortar, 0.002 wt % Air 30 alone or +0.05 wt % SA
[21] = 30:70 fly ash M3 (LOI 3.15%):cement mortar, 0.005 wt % Air 40 alone or +0.05 wt % SA
[22] = 30:70 fly ash R (LOI 0.17%):cement mortar, 0.002 wt % Air 30 alone or +0.05 wt % SA
[23] = 30:70 fly ash R (LOI 0.17%):cement mortar, 0.005 wt % Air 40 alone or +0.05 wt % SA
[24] = PCA cement mortar, no fly ash, 0.0017 wt % Air 30 alone or +0.05 wt % SA
[25] = PCA cement mortar, no fly ash, 0.004 wt % Air 40 alone or +0.05 wt % SA
[26] = over the fly ash mortars of Table 12, 0.002 wt % Air 30 alone or +0.05 wt % SA
[27] = over the fly ash mortars of Table 13, 0.005 wt % Air 40 alone or +0.05 wt % SA

Compound: OCCOc1ccccc1 [EGPE, Ethylene glycol phenyl ether]
- Air entrainment [1, 4]: 3.6
- Air entrainment ([1]; 30:70 fly ash B1 (LOI 5.01%):cement mortar, 0.005 wt % Air 40 +0.1 wt % EGPE): 9.3
- Air entrainment [1, 5]: 5.4
- Air entrainment [1, 6]: 4.7
- Air entrainment ([1]; 30:70 fly ash C1 (LOI 0.70%):cement mortar, 0.005 wt % Air 40 +0.1 wt % EGPE): 12.6
- Air entrainment [1, 7]: 6.6
- Air entrainment [1, 8]: 6.9
- Air entrainment ([1]; 30:70 fly ash C2 (LOI 3.04%):cement mortar, 0.005 wt % Air 40 +0.1 wt % EGPE): 12.4
- Air entrainment [1, 9]: 8.8
- Air entrainment [1, 10]: 5.9
- Air entrainment ([1]; 30:70 fly ash C3 (LOI 2.54%):cement mortar, 0.005 wt % Air 40 +0.1 wt % EGPE): 9.8
- Air entrainment [1, 11]: 8.0
- Air entrainment [1, 12]: 14.9
- Air entrainment ([1]; 30:70 fly ash D (LOI […]):cement mortar, 0.005 wt % Air 40 +0.1 wt % EGPE): 13.2
- Air entrainment [1, 13]: 12.8
- Air entrainment [1, 14]: 3.1
- Air entrainment ([1]; 30:70 fly ash H1 (LOI 8.45%):cement mortar, 0.005 wt % Air 40 +0.1 wt % EGPE): 5.7
- Air entrainment [1, 15]: 3.1
- Air entrainment [1, 16]: 5.4
- Air entrainment ([1]; 30:70 fly ash M1 (LOI […]):cement mortar, 0.005 wt % Air 40 +0.1 wt % EGPE): 12.7
- Air entrainment [1, 17]: 8.0
- Air entrainment [1, 18]: 2.8
- Air entrainment ([1]; 30:70 fly ash M2 (LOI 8.78%):cement mortar, 0.005 wt % Air 40 +0.1 wt % EGPE): 6.7
- Air entrainment [1, 19]: 4.9
- Air entrainment [1, 20]: 7.6
- Air entrainment ([1]; 30:70 fly ash M3 (LOI 3.15%):cement mortar, 0.005 wt % Air 40 +0.1 wt % EGPE): 18.3
- Air entrainment [1, 21]: 10.2
- Air entrainment [1, 22]: 13.5
- Air entrainment ([1]; 30:70 fly ash R (LOI 0.17%):cement mortar, 0.005 wt % Air 40 +0.1 wt % EGPE): 15.2
- Air entrainment [1, 23]: 13.5
- Air entrainment [1, 24]: 14.0
- Air entrainment ([1]; PCA cement mortar, no fly ash, 0.004 wt % Air 40 +0.1 wt % EGPE): 16.2
- Air entrainment [1, 25]: 14.9
- decrease of variability (RSD values) [1]: approximately 50%
- Average of air entrained [1, 26]: 6.8%
- Average of air entrained ([1]; over the fly ash mortars of Table 13, 0.005 wt % Air 40 +0.1 wt % EGPE): 12%
- Average of air entrained [1, 27]: 8.1%
- Overall performance rating (second protocol rating) [2]: 4
- B1 + 0.0125% DDBS + 0.05% SA (air entrainment) [2]: 6.9
- B1 + 0.0125% DDBS + 0.1% SA (air entrainment) [2]: 8.1
- PCA + 0.1% SA (level of air entrainment by the candidate sacrificial agent) [2]: 1.5
- SA Rating (0-4) [2]: 4
- Experimental LogKow [3]: 1.16
- Experimental LogKow ([3]; listed as 2-Phenoxyethanol): Experimental LogKow: 1.16

Compound: O=S(=O)([O-])c1ccc2ccccc2c1.[Na+] [NS, Sodium 2-Naphthalene sulfonate]
- Air entrainment [1, 4]: 4.0
- Air entrainment [1, 5]: 5.6
- Air entrainment [1, 6]: 4.3
- Air entrainment [1, 7]: 7.2
- Air entrainment [1, 8]: 5.9
- Air entrainment [1, 9]: 7.5
- Air entrainment [1, 10]: 4.8
- Air entrainment [1, 11]: 7.8
- Air entrainment [1, 12]: 11.4
- Air entrainment [1, 13]: 12.6
- Air entrainment [1, 14]: 2.7
- Air entrainment [1, 15]: 3.0
- Air entrainment [1, 16]: 5.8
- Air entrainment [1, 17]: 8.2
- Air entrainment [1, 18]: 2.8
- Air entrainment [1, 19]: 5.0
- Air entrainment [1, 20]: 6.9
- Air entrainment [1, 21]: 10.0
- Air entrainment [1, 22]: 12.0
- Air entrainment [1, 23]: 13.7
- Air entrainment [1, 24]: 13.4
- Air entrainment [1, 25]: 14.8
- decrease of variability (RSD values) [1]: approximately 50%
- Average of air entrained [1, 26]: 6.1%
- Average of air entrained [1, 27]: 8.0%
- Overall performance rating (second protocol rating) [2]: 3
- B1 + 0.0125% DDBS + 0.05% SA (air entrainment) [2]: 4.4
- B1 + 0.0125% DDBS + 0.1% SA (air entrainment) [2]: 5.3
- PCA + 0.1% SA (level of air entrainment by the candidate sacrificial agent) [2]: 1.0
- SA Rating (0-4) [2]: 3
